{
  "source": "paper PMC4745082",
  "about": "“A Novel PET Imaging Probe for the Detection and Monitoring of Translocator Protein 18 kDa Expression in Pathological Disorders” (Scientific Reports, 2016)",
  "key": {"[1]": {"assay_type": "in vitro ADME", "conditions": "2 h", "procedure": "The in vitro stability of [^18F]CB251 was assayed by monitoring both the radio-TLC and the radio-HPLC profiles to determine its radiochemical purity. To assess the in vitro serum stability, 100 μL of [^18F]CB251 in 10% EtOH/saline was incubated with 0.5 mL of human serum from a healthy volunteer for 2 h at 37 °C and the solution was analysed at 0, 10, 30, 60 and 120 min by a radio-TLC scanner using MeOH-CH2Cl2 (5:95) as the developing solvent. Separately, 100 μL of [^18F]CB251 in 10% EtOH/saline was also incubated with 0.9 mL of human serum from a healthy volunteer for 2 h at 37 °C. Aliquots (200 μL) were taken from the sample at time points of 0, 30, 60 and 120 min and mixed with absolute acetonitrile (200 μL). The mixture was centrifuged (3500 rpm, 5 min) to precipitate out serum proteins. The resulting supernatant including the authentic CB251 (1.0 mg/2.0 mL of CH3CN, 20 μL) was filtered through a 0.45 μm GH Polypro (GHP) membrane Disc filter before HPLC analysis to determine the fraction of intact radiotracer. Samples were analysed by HPLC (Waters, Xterra RP-18, 5 μm, 4.6 × 250 mm; eluant: 60% CH3CN/H2O; flow rate: 1 mL/min; guard column 10 × 10 mm)."}, "[2]": {"test_system": "human glioblastoma U87-MG xenografts", "set-up": "species or system mice", "conditions": "mouse, in vivo", "procedure": "Another in vivo test of [^18F]CB251 was performed in U87-MG-bearing mice using a microPET scanner (Fig. 6). Tumour cells were engrafted on the left thigh of Balb/c nude mice. [^18F]CB251 was administered intravenously after the tumour volume reached approximately 364.5 ± 32.2 mm^3 and a dynamic PET scan was performed. […] In particular, [^18F]CB251 provided a tumour accumulation (1.96 ± 0.11%ID/g at 1 h post injection) and a visible image of the tumour in summed PET images.\nU87-MG cells (ATCC) were cultured in Dulbecco’s modified Eagle’s medium supplemented with 4 mM L-glutamine, 4,500 mg/L glucose, 1 mM sodium pyruvate, […] sodium bicarbonate, 10% FBS and antibiotic-antimycotic (Gibco, Grand Island, NY, USA) at 37 °C in a humidified atmosphere of 5% CO2. U87-MG cells were cultured for 2–3 days without changing the medium and were harvested with trypsin-EDTA in PBS. Male Balb/c nu/nu mice, obtained at 6–7 weeks of age (Orient Bio Inc., Seongnam, Korea), were subcutaneously injected in the right shoulder with 5 × 10^6 U87-MG cells suspended in 100 μL of 100 mM PBS (pH 7.4). Animal protocols were approved by the Seoul National University Bundang Hospital Animal Care and Use Committee and the methods were carried out in accordance with the approved guidelines. We also performed calliper measurements of the longest perpendicular tumour diameters.\nFive LPS-induced neuroinflammation rats (219.2 ± 14.1 g) were used for brain PET imaging at 4 days post-LPS injection. Before the scan, the rats were anesthetized with 2% isoflurane in a 7:3 mixture of N2/O2. PET imaging of the rat brain was performed in a dedicated small animal PET/CT (NanoPET/CT, Bioscan, Inc., U.S.A.) with a 10-cm axial field-of-view (FOV) and a 12-cm transaxial FOV. […] Regional uptake of radioactivity was decay-corrected to the injection time and was expressed as the standardized uptake value (SUV), which was normalized to the injected radioactivity and animal body weight. […]"}, "[3]": {"experiment": "Log D determination (n-octanol / sodium phosphate buffer pH 7.4)", "assay_type": "physicochemical", "conditions": "n-octanol / sodium phosphate buffer 0.15 M pH 7.4, measured four times", "procedure": "After vortexing for 1 min, each tube was then stored for 3 min at room temperature and the phases were separated. Samples of each phase (100 μL) were counted for radioactivity. Log D is expressed as the logarithm of the ratio of the counts from n-octanol versus that of the sodium phosphate buffer."}, "TSPO": {"biological_target": "TSPO (Rattus norvegicus, UniProt P16257)", "sequence (P16257 whole entry)": "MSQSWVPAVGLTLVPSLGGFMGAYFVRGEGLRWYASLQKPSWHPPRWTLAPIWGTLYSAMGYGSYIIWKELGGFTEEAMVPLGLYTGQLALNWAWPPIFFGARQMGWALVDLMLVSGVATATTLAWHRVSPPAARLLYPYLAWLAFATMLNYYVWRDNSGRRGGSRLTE", "experiment": "microPET in LPS-induced neuroinflammation rat model", "assay_type": "in vivo", "set-up": "from tissue; host or cells: Living rat brain (ipsilateral and contralateral striatum), LPS-injected Sprague-Dawley rats", "procedure": "Male Sprague-Dawley rats weighing 200–250 g were used for the brain inflammation model and neuroinflammation was induced using lipopolysaccharide (LPS; Sigma-Aldrich, St. Louis, MO, U.S.A.) as previously described. In all rats used for sequential PET scans, microglia activation between the ipsilateral and contralateral areas was determined by CD68 immunohistochemical staining.\nFive LPS-induced neuroinflammation rats (219.2 ± 14.1 g) were used for brain PET imaging at 4 days post-LPS injection. Before the scan, the rats were anesthetized with 2% isoflurane in a 7:3 mixture of N2/O2. PET imaging of the rat brain was performed in a dedicated small animal PET/CT (NanoPET/CT, Bioscan, Inc., U.S.A.) with a 10-cm axial field-of-view (FOV) and a 12-cm transaxial FOV. […] To determine the TSPO selectivity and TSPO specificity of the PET images, flumazenil (5 mg/kg intravenously) was administered at 15 min post [^18F]CB251 injection via jugular catheter. Subsequently, PBR28 (5 mg/kg intravenously) was injected 30 min later via jugular catheter in the same LPS-induced neuroinflammation rat model. Three human glioblastoma U87-MG-bearing mice were used for TSPO-rich cancer PET imaging. PET scans of the mice, anesthetized with 2% isoflurane, were performed with a 9.3-cm axial, 8.4-cm trans-axial FOV scanner. At the end of each study, the list-mode data were sorted into a dynamic scan consisting of 54 frames for 90 min. The acquired images were reconstructed by the 3-D Adjoints Monte Carlo method, which included scatter and random corrections. A region of interest (ROI) with a 2-mm radius was delineated in the ipsilateral lesioned striatum by the intensely visualized region in the summed image of all the frames. Regional uptake of radioactivity was decay-corrected to the injection time and was expressed as the standardized uptake value (SUV), which was normalized to the injected radioactivity and animal body weight. Analysis of the PET images was performed using PMOD software v.3.1 (PMOD Technologies Ltd., Zurich, Switzerland). The time activity curve (TAC) representing the variation in radioligand concentration according to the time-course was estimated for the ipsilateral striatum."}},
  "note": "Entries after “also recorded” stand apart in the source; their conditions may differ.",
  "data": [
    {"smiles": "CCCN(CCC)C(=O)Cc1c(-c2ccc(OCC[18F])cc2)nc2c(Cl)cc(Cl)cn12", "note": "[[^18F]CB251, 2-(2-(4-(2-[^18F]fluoroethoxy)phenyl)-6,8-dichloroimidazo[1,2-a]pyridin-3-yl)-N,N-dipropylacetamide]", "values": [
      {"measurement": "radioactive parent remaining in human serum", "setting": "[1]", "value": "greater than 99%"},
      {"measurement": "tumour uptake", "setting": "[2]; male, Balb/c nu/nu, 1 h", "value": "1.96 ± 0.11", "unit": "%ID/g"},
      {"measurement": "bladder and muscle uptake", "setting": "[2]", "value": "low"},
      {"measurement": "kidney uptake", "setting": "[2]", "value": "high"},
      {"measurement": "logD", "setting": "[3]", "value": "3 ± 0.03"},
      {"measurement": "uptake ratio between the ipsilateral area and the contralateral area", "setting": "TSPO; 30 min post injection", "value": 2.35, "unit": "times"},
      {"measurement": "uptake of [18F]CB251 in the ipsilateral area after PBR28 injection", "setting": "TSPO; displacement, PBR28 5 mg/kg intravenously 30 min after flumazenil", "value": "decreased significantly; also recorded: significantly decreased"},
      {"measurement": "uptake of [18F]CB251 in the ipsilateral region after flumazenil", "setting": "TSPO; displacement, flumazenil 5 mg/kg intravenously at 15 min post injection", "value": "did not prevent the uptake"},
      {"measurement": "binding potential of the specifically bound radioligand relative to the non-displaceable radioligand in tissue (BPND)", "setting": "TSPO; ipsilateral striatum, contralateral striatum as reference, Logan plot with reference tissue input", "value": "1.83 ± 0.18"},
      {"measurement": "uptake in the skull", "setting": "TSPO; summed microPET images", "value": "no significant uptake"}
    ]}
  ]
}
